Results on 13 molecules are retold here after patent US4080467A, “Pharmaceutical compositions comprising 1,3-dithiolan-2-ylidene malonate derivatives” (Nihon Nohyaku Co., Ltd., priority 1976, dated 1978).

For test [1], the system named is Acute Liver Damage associated with Centrilobular Necrosis (carbon tetrachloride). The experiment in a line: Protective effect on acute liver damage associated with centrilobular necrosis (carbon tetrachloride model). It is filed as in vivo, mice (four-week-old male, dd strain). The conditions noted are these: 250 mg/kg oral 6 h before CCl4, average of 5 to 6 mice; for p-GPT (plasma glutamic-pyruvic transaminase activity): 24 h after CCl4, values over 1,000 regarded as 1,000; for Liver Damage Index: 0 normal, 2 slightly recognized, 4 clearly observable damage, 6 heavy damage. An excerpt:
Carbon tetrachloride (CCl4) administration induces centrilobular necrosis of the liver associated with loss of diphosphopyridine nucleotide, hepatic glycogen, coenzyme A and increase in neutral fat. Release of several enzymes from the hepatocytes, and increases of enzyme activities in the plasma are recognized as the result of the damage of the liver. A suitable means for evaluating the degree of damage induced by CCl4 or the degree of protection afforded by drugs is to study the plasma glutamic-pyruvic transaminase (p-GPT) activity.
Method: The test compounds were dissolved or suspended in olive oil and administered orally at the dose of 250 mg/kg to the mice (Four-week-old male mice-dd strain). After 6 hours, CCl4 was administered orally (0.05 ml/kg as olive oil solution). Animals were killed 24 hours after CCl4 administration, and the liver was grossly observed. The plasma was obtained by centrifugation. Activities of p-GPT were determined by the method of Reitman and Frankel and expressed in Karmen units.
Score for liver damage was as follows: […]
4 Clearly observable damage
Each figure indicates average of 5 to 6 mice. Values of p-GPT over 1,000 Karmen unit regarded as 1,000 for calculation of average for convenience.

In test [2] the test system is fatty liver (carbon tetrachloride). The experiment in a line: Therapeutic effect on fatty liver (carbon tetrachloride model). Format: in vivo, male rat (35 week-old, SD strain). The conditions noted are these: for Degree of fatty liver (histopathological examination): 10 days, one symbol per animal. As to the method: Carbon tetrachloride also induces fatty liver, but the picture of disease differs from the case of ethionine-induced fatty liver. Carbon tetrachloride is generally considered to damage microsome and thereby to inhibit protein synthesis and induce fatty liver.
Carbon tetrachloride was subscutaneously administered to 35 week-old male rat (SD strain) for 4 days at the dose of 1 ml/kg. The treated animals were left for 3 days after the last administration to maximize the manifestation of fatty liver.
Administration of the compounds of this invention was commenced on the fourth day after the administration of carbon tetrachloride was completed. It was orally given everyday for 10 days at the dose of 50 or 250 mg/kg. On the 11th day, the animals were sacrificed. The therapeutic effect was evaluated by determining the content of lipid in the liver (triglyceride and total lipid) and examining the histopathological changes. Triglyceride and total lipid were determined colorimetrically by chromotropic acid method and Bragdon's oxidation method, respectively.
Indices for the histopathological change is as follows.

Test [3] is described as follows: Effect on glucose metabolism (blood sugar after glucose load). Format: in vivo, mice. The conditions noted are these: for Blood Sugar: 250 mg/kg oral 6 h before glucose 4.0 g/kg. Here is the method:
The test compounds dissolved in olive oil and administered orally at the dose of 250 mg/kg to the mice. After 6 hours, 4.0 g/kg of glucose was orally administered. The same amount of glucose was given to the control animals. 0.02 ml of blood was taken from caudal vein of the mice at 30, 60, 90 and 120 min. after glucose administration. Blood sugar was measured by the procedure of Somogyi-Nelson. Number of animals used was 5 to 6 mice for each treatment.

The test system of test [4] is bile flow and biliary salt. Briefly: Cholagogic action: bile flow and excretion of biliary salt. Format: in vivo, male rat (4 week-aged, SD-JCL strain). The conditions noted are these: 200 mg/kg oral; for bile flow / excretion of biliary salt: before treatment = 100. Here is the method:
The male rat (4 week-aged, SD-JCL strain) was anesthetized with sodium pentobarbital (37.5 mg/kg, intraperitoneal injection). The abdominal cavity was opened through a midline incision. The common bile duct was catheterized with polyethylene tube o.d. 0.8 mm. The catheter was brought to the outside through the abdominal incision wound prior to closing. Bile was collected from the catheter continuously with time intervals of one hour. The quantity of bile produced in one hour was determined by weighing and that of biliary salt was determined by enzymatic method (Ikagaku Jikkenho Koza 1B, Biological Constituents II, edited by Tamio YAMAKAWA). The amount of biliary salts was represented as cholic acid equivalent.
In the representation of the results, the quantities of bile and biliary salts produced in one hour prior to the administration of drug were taken as 100. The compound of this invention was orally administered at the dose of 200 mg/kg. As reference anethol trithion was used.

Another test concerns fatty liver (ethionine). Briefly: Effect on fatty liver (ethionine model). It is filed as in vivo, male mice (4 week-old, dd-strain). The conditions noted are these: diet plus 0.2% ethionine and 0.2% compound, 5 days. An excerpt:
There are known many factors inducing fatty liver. But, the fatty liver is grouped into a couple of patterns from the mechanism of lipid accumulation or metabolism of lipoprotein in the liver. Ethionine is a typical compound inducing fatty liver. It inhibits RNA and protein syntheses and destructs polysome of the liver cell. Fatty liver is induced by the inhibition of protein synthesis and the disturbance of lipoprotein secretion.
Usually, fatty liver is closely related to the accumulation of triglyceride in the liver. In the present example, the degree of fatty liver and protective or therapeutic effect against the fatty liver was evaluted by measurement of triglyceride content in the liver.
The animals used in the test were 4 week-old male mice (dd-strain).
The mice were submitted for 5 days to a normal diet (control), to the normal diet plus 0.2% ethionine (positive control), to the normal diet plus 0.2% ethionine and 0.2% of the compound of this invention, or to the normal diet plus 0.2% ethionine and 0.2% methionine which was the referential diet. At the end of the period of 5 days, content of triglyceride in the liver was studied colorimetrically by chromotropic acid method and the result was represented as triolein content (mg/g-liver).

The nature of test [5]: Effect on concentration of ethyl alcohol in the blood. As to conditions: 250 mg/kg oral 6 h before ethyl alcohol 1,000 mg/kg. It is filed as in vivo, mice. Here is the method:
The test compounds are dissolved or suspended in olive oil and administered orally at the dose of 250 mg/kg to the mice. After 6 hours, 1,000 mg/kg of ethyl alcohol was given orally. Blood was taken in a capillary from caudal vein at the time indicated in the results. The plasma was obtained by centrifugation. The concentration of ethyl alcohol in the plasma was measured by FID type gas liquid chromatography. Five mice were used for each group.

Setting [6] is: 50 mg/kg oral everyday for 10 days.
Setting [7] is: 250 mg/kg oral everyday for 10 days.

Take `CC(C)COC(=O)C(C(=O)OCC(C)C)=C1SCCS1` [Compound 6]: the “p-GPT (plasma glutamic-pyruvic transaminase activity)” value (from here on “p-GPT”) in test [1] is 26 Karmen units. For the same molecule, the “Liver Damage Index” value in test [1] was 0.5. Besides, the “Degree of fatty liver (histopathological examination)” value is “± ± and ± ± + ±” in test [2] (50 mg/kg oral); “± - - - ± ±” in test [2] (250 mg/kg oral).

`CCSC(=O)C(C(=O)SCC)=C1SCCS1` [Compound 12]: the “Blood Sugar (percent of 0 min value)” value is recorded as 100% in test [3] (0 min); 187% in test [3] (30 min); 160% in test [3] (60 min); 118% in test [3] (90 min); 100% in test [3] (120 min). The “Blood Sugar” value in test [3] (0 min) is 141 ± 11.3 mg/dL; in test [3] (30 min), 264 ± 21.5 mg/dL; in test [3] (60 min), 225 ± 17.2 mg/dL; in test [3] (90 min) it was 167 ± 15.6 mg/dL; in test [3] (120 min), 142 ± 13.2 mg/dL. For the same molecule, the “p-GPT” value in test [1] came to 36 Karmen units. For the same molecule, the “Liver Damage Index” value in test [1] is given as 1.0.

For `CC(C)SC(=O)C(C(=O)SC(C)C)=C1SCCS1` [Compound 13], the “p-GPT” value in test [1] is on record as 105 Karmen units. The “Liver Damage Index” value in test [1] worked out at 1.4. The “Degree of fatty liver (histopathological examination)” value in test [2] (50 mg/kg oral) was “± ± and ± ± ± + ±”; in test [2] (250 mg/kg oral), “- ± and - ± ± ±”.

As for `COC(=O)C(C(=O)OCC(C)C)=C1SCCS1` [Compound 20], the bile flow in test [4] (1 hour after treatment) was determined as 113±4.3; in test [4] (2 hours after treatment) it was 112±8.2; in test [4] (3 hours after treatment), 106±6.3; in test [4] (4 hours after treatment), 113±8.8; in test [4] (5 hours after treatment) it was 93±3.8. For the same molecule, the “excretion of biliary salt” value is 104±11 in test [4] (1 hour after treatment); 119±13 in test [4] (2 hours after treatment); 120±17 in test [4] (3 hours after treatment); 113±18 in test [4] (4 hours after treatment); 82±7.3 in test [4] (5 hours after treatment). Further, the “Amount of total biliary salts excreted for 5 hours relative to control” value in test [4] (versus control) is 1.55 times. Further, in test [4] (versus control), the “Quantity of total excreted bile for 5 hours relative to control” value is 1.14 times. Also, the “p-GPT” value in test [1] stood at 62 Karmen units. Also, the “Liver Damage Index” value in test [1] came out at 0.2.

On to `CCOC(=O)C(C(=O)OC(C)CC)=C1SCCS1` (stereo not shown) [Compound 22], for which, in the test with fatty liver (ethionine), the “Triglyceride (content in the liver, as triolein)” value was found to be 11.3 ± 0.96 mg/g. In addition, in test [1], the “p-GPT” value was 67 Karmen units and the “Liver Damage Index” value is reported as 0.4.

Take `CCOCCOC(=O)C(C(=O)OC(C)C)=C1SCCS1` [Compound 24]: the “Blood Sugar (percent of 0 min value)” value in test [3] (0 min) came to 100%; in test [3] (30 min) it was 184%; in test [3] (60 min) it was 158%; in test [3] (90 min), 128%; in test [3] (120 min), 104%. Further, the “Blood Sugar” value in test [3] (0 min) stood at 135 ± 13.2 mg/dL; in test [3] (30 min), 248 ± 20.2 mg/dL; in test [3] (60 min), 214 ± 18.8 mg/dL; in test [3] (90 min), 173 ± 24.4 mg/dL; in test [3] (120 min) it was 140 ± 16.3 mg/dL. The “p-GPT” value in test [1] was 152 Karmen units. Also, the “Liver Damage Index” value in test [1] is 1.2.

Take `CCOC(=O)C(C(=O)SCC)=C1SCCS1` [Compound 26]: the “Concentration of Ethyl alcohol in Plasma” value in test [5] (0 min) was determined as 10±3 ppm; in test [5] (5 min), 690±102 ppm; in test [5] (15 min), 694±86 ppm; in test [5] (30 min) it was 432±96 ppm; in test [5] (60 min), 12±8 ppm. In addition, the “p-GPT” value in test [1] was determined as 62 Karmen units. Further, in test [1], the “Liver Damage Index” value was found to be 0.6.

In the case of `CCOC(=O)C(C(=O)OCC)=C1SCC[S+]1[O-]` (stereo not shown) [Compound 30], the “Triglyceride (content in the liver, as triolein)” value with fatty liver (ethionine) is listed as 12.6 ± 2.3 mg/g. Also, in test [1], the “p-GPT” value is recorded as 156 Karmen units and the “Liver Damage Index” value worked out at 0.8.

Regarding `CC(C)COC(=O)C(C(=O)OCC(C)C)=C1SCC[S+]1[O-]` (stereo not shown) [Compound 32], in test [1], the “p-GPT” value was 180 Karmen units and the “Liver Damage Index” value turned out to be 1.0. Moreover, in test [2] (setting [6]), the Total lipid is reported as 112.4 ± 12.3 mg/g-liver and the Triglyceride came to 48.3 ± 7.6 mg/g-liver. Further, in test [2] (setting [7]), the Total lipid is given as 77.2 ± 8.7 mg/g-liver and the Triglyceride was found to be 26.3 ± 4.2 mg/g-liver.

For the molecule `COC(=O)C(C(=O)OCC(C)C)=C1SCC[S+]1[O-]` (stereo not shown) [Compound 34], in test [1], the “p-GPT” value turned out to be 102 Karmen units and the “Liver Damage Index” value is recorded as 1.0.

With `CCOC(=O)C(C(=O)OC(C)C)=C1SCC[S+]1[O-]` (stereo not shown) [Compound 35], in test [1], the “p-GPT” value was found to be 152 Karmen units and the “Liver Damage Index” value is listed as 0.8.

On to `CCOCCOC(=O)C(C(=O)OC(C)C)=C1SCC[S+]1[O-]` (stereo not shown) [Compound 36], for which, in test [1], the “p-GPT” value was 210 Karmen units and the “Liver Damage Index” value is given as 1.4.

As to `NC(=O)CCCCC1CCSS1` (stereo not shown) [Thioctic acid amide, thioctic acid amide, reference compound], in test [1], the “p-GPT” value is given as 763 Karmen units and the “Liver Damage Index” value is 4.8.
